Assay results from the supplement of paper PMC12137928.
Structures can show the parent of a compound that is named as a salt.

Assays:
[1] = tested on: HCT116; test: efficacy (maximum % inhibition of viability vs DMSO); higher = more cytotoxic; conditions: 72 h
Method in brief: (§1)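 IC50 and maximal efficacy were derived from four-parameter Hill curve fits. The underlying CellTiter-Glo luminescence was scaled so that vehicle equals 0% and positive control equals -100%, and was then pattern-corrected. HCT116 cells had been seeded in 1536-well plates at 250 per well.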

[2] = tested on: HCT116; conditions: 72 h
Method in brief: as §1

| IC50 cell viability ([2]; ICRF193 0 nM) | IC50 cell viability ([2]; ICRF193 200 nM) | SMILES | efficacy ([1]; ICRF193 0 nM) | efficacy ([1]; ICRF193 200 nM) |
| --- | --- | --- | --- | --- |
| 29.1 µM | 18.3 µM | C=C[C@@H]1C[C@]1(NC(=O)[C@@H]1C[C@@H]2CN1C(=O)[C@H](C(C)(C)C)NC(=O)O[C@@H]1C[C@H]1CCCCCc1nc3ccc(OC)cc3nc1O2)C(=O)NS(=O)(=O)C1CC1 [MK-5172] | 91.6% | 81.1% |
| 0.13 µM | 0.103 µM | CC(C)C[C@H](NC(=O)CNC(=O)c1cc(Cl)ccc1Cl)B1OC(=O)C(CC(=O)O)(CC(=O)O)O1 [MLN9708] | 96.2% | 94.4% |
| 0.183 µM | 0.231 µM | CN(C)c1ccc(C(=C2C=CC(=[N+](C)C)C=C2)c2ccccc2)cc1 [Malachite green oxalate] | 98.5% | 96% |
| 18.3 µM | 18.3 µM | COC(=O)C1=C(C)NC(C)=C(C(=O)OCCN2CCN(C(c3ccccc3)c3ccccc3)CC2)C1c1cccc([N+](=O)[O-])c1 (centres undefined) [Manidipine] | 92% | 90.1% |
| > 45.8 µM | 29.1 µM | CNCCCC12CCC(c3ccccc31)c1ccccc12 [Maprotiline hydrochloride] |  | 86.5% |
| 11.6 µM | 20.6 µM | Cc1ccc(NC(=O)c2ccc(CN3CCN(C)CC3)cc2)cc1Nc1nc(-c2cccnc2)cs1 [Masitinib] | 43.6% | 66.8% |
| 29.1 µM | 20.6 µM | NS(=O)(=O)c1ccc(-n2nc(C(F)(F)F)cc2-c2ccc(F)cc2)cc1 [Mavacoxib] | 56.9% | 51.5% |
| 20.6 µM | 0.92 µM | COC(=O)Nc1nc2cc(C(=O)c3ccccc3)ccc2[nH]1 [Mebendazole] | 55.3% | 61.9% |
| > 45.8 µM | 29.1 µM | Cc1cccc(CN2CCN(C(c3ccccc3)c3ccc(Cl)cc3)CC2)c1 (centres undefined) [Meclizine hydrochloride] |  | 49.1% |
| 20.6 µM | 29.1 µM | C=C1c2c(Cl)ccc(O)c2C(=O)C2=C(O)[C@]3(O)C(=O)C(C(N)=O)=C(O)[C@@H](N(C)C)[C@@H]3[C@@H](O)[C@H]12.O=C(O)c1cc(S(=O)(=O)O)ccc1O [Meclocycline sulfosalicylate] | 54.3% | 64% |
| 23.1 µM | 23.1 µM | OC(c1cc(C(F)(F)F)nc2c(C(F)(F)F)cccc12)C1CCCCN1 (centres undefined) [Mefloquine hydrochloride] | 116% | 98% |
| > 45.8 µM | 18.3 µM | C=C1C[C@H]2[C@@H]3C=C(C)C4=CC(=O)CC[C@]4(C)[C@H]3CC[C@]2(C)[C@@]1(OC(C)=O)C(C)=O [Melengestrol acetate] |  | 40.9% |
| > 45.8 µM | 29.1 µM | CN(C)CCC=C1c2ccccc2C(C)(C)c2ccccc21 [Melitracen hydrochloride] |  | 61.4% |
| > 45.8 µM | 20.6 µM | Cc1cc(O)c2ccccc2c1O [Menadiol] |  | 41.5% |
| 18.3 µM | 29.1 µM | CC1(S(=O)(=O)O)CC(=O)c2ccccc2C1=O (centres undefined) [Menadione sodium bisulfite] | 102% | 40.7% |
| > 45.8 µM | 18.3 µM | CN1CCC(CN2c3ccccc3Sc3ccccc32)C1 (centres undefined) [Methdilazine hydrochloride] |  | 53.5% |
| 0.146 µM | 0.146 µM | CN(Cc1cnc2nc(N)nc(N)c2n1)c1ccc(C(=O)N[C@@H](CCC(=O)O)C(=O)O)cc1 [Methotrexate] | 91.8% | 93.9% |
| > 45.8 µM | 23.1 µM | COc1ccc2c(c1)N(C[C@H](C)CN(C)C)c1ccccc1S2 [Methotrimeprazine maleat salt] |  | 50.8% |
| 3.66 µM | 2.31 µM | CN(C)c1ccc2nc3ccc(=[N+](C)C)cc-3sc2c1 [Methylene blue] | 109% | 91.6% |
| 0.326 µM | 0.164 µM | CN(C)c1ccc(C(=C2C=CC(=[N+](C)C)C=C2)c2ccc(N(C)C)cc2)cc1 [Methylrosaniline chloride] | 89.5% | 90.4% |
| 20.6 µM | 25.9 µM | CN1CCCC(CC2c3ccccc3Sc3ccccc32)C1 (centres undefined) [Metixene hydrochloride] | 109% | 94.6% |
| 23.1 µM | 29.1 µM | CN1CCN2c3ccccc3Cc3ccccc3C2C1 (centres undefined) [Mianserin] | 51% | 62% |
| 11.6 µM | 16.4 µM | CCCCCCCCCCCCCCCCCCNC(=O)OC1CCN(C(=O)OC[C@H](COC(=O)N(Cc2cccc[n+]2CC)C(=O)c2ccccc2OC)OC)CC1 [Minopafant] | 111% | 124% |

| IC50 cell viability ([2]; ICRF193 0 nM) | IC50 cell viability ([2]; ICRF193 200 nM) | SMILES | efficacy ([1]; ICRF193 0 nM) | efficacy ([1]; ICRF193 200 nM) |
| --- | --- | --- | --- | --- |
| 11.6 µM | 8.2 µM | CCCCCCCCCCCCCC[n+]1ccc(C)cc1 [Miripirium chloride] | 104% | 70% |
| 18.3 µM | 20.6 µM | C[C@@H]1C[C@H]2[C@@H]3CCC4=CC(=O)C=C[C@]4(C)[C@@]3(Cl)[C@@H](O)C[C@]2(C)[C@@]1(OC(=O)c1ccco1)C(=O)CCl [Mometasone furoate] | 102% | 97.9% |
| 23.1 µM | 23.1 µM | O=C(CCCN1CCN(c2ccc(F)cc2)CC1)NC1c2ccccc2CSc2ccccc21 (centres undefined) [Monatepil] | 123% | 93.7% |
| 23.1 µM | 20.6 µM | C[C@](C#N)(COc1cc(C#N)ccc1C(F)(F)F)NC(=O)c1ccc(SC(F)(F)F)cc1 [Monepantel] | 98.1% | 90.3% |
| 20.6 µM | 23.1 µM | O=C1NC2CCCCN2C12CCN(CCCN1c3ccccc3CCc3ccc(Cl)cc31)CC2 (centres undefined) [Mosapramine] | 125% | 129% |
| 20.6 µM | 16.4 µM | CO/N=C1\C[C@]2(C[C@@H]3C[C@@H](C/C=C(\C)C[C@@H](C)/C=C/C=C4\CO[C@@H]5[C@H](O)C(C)=C[C@@H](C(=O)O3)[C@]45O)O2)O[C@H](/C(C)=C/C(C)C)[C@H]1C [Moxidectin] | 128% | 111% |
| 1.83 µM | 1.64 µM | COc1c(C)c2c(c(O)c1C/C=C(\C)CCC(=O)OCCN1CCOCC1)C(=O)OC2 [Mycophenolate mofetil] | 74% | 74.4% |
| 1.83 µM | 2.59 µM | COc1c(C)c2c(c(O)c1C/C=C(\C)CCC(=O)O)C(=O)OC2 [Mycophenolic acid] | 70.7% | 92.4% |
| > 45.8 µM | 20.6 µM | Cc1ccc2nc(N)[nH]c(=O)c2c1Sc1ccncc1 [NOLATREXED HCL] |  | 45.1% |
| 32.6 µM | 29.1 µM | CN(C/C=C/c1ccccc1)Cc1cccc2ccccc12 [Naftifine hydrochloride] | 49.9% | 54% |
| > 45.8 µM | 23.1 µM | COc1ccccc1N1CCN(CC(O)COc2cccc3ccccc23)CC1 (centres undefined) [Naftopidil] |  | 62.6% |
| 14.6 µM | 18.3 µM | CCc1nn(CCCN2CCN(c3cccc(Cl)c3)CC2)c(=O)n1CCOc1ccccc1 [Nefazodone hydrochloride] | 42.5% | 63.8% |
| 29.1 µM | 20.6 µM | Cc1c(O)cccc1C(=O)N[C@@H](CSc1ccccc1)[C@H](O)CN1C[C@H]2CCCC[C@H]2C[C@H]1C(=O)NC(C)(C)C [Nelfinavir mesylate] | 104% | 106% |
| 14.2 µM | 8.96 µM | Cc1ccc(C(=O)OCc2ccc([C@@H](CN)C(=O)Nc3ccc4cnccc4c3)cc2)c(C)c1 [Netarsudil] | 104% | 94.1% |
| 16.4 µM | 16.4 µM | CCCCCOc1ccccc1/C(=C\SC)n1ccnc1 [Neticonazole] | 48.1% | 51.1% |
| 23.1 µM | 20.6 µM | COC(=O)C1=C(C)NC(C)=C(C(=O)OCCN(C)Cc2ccccc2)C1c1cccc([N+](=O)[O-])c1 (centres undefined) [Nicardipine] | 61.1% | 69.1% |
| 0.712 µM | 0.712 µM | O=C(Nc1ccc([N+](=O)[O-])cc1Cl)c1cc(Cl)ccc1O [Niclosamide] | 88.5% | 82.8% |
| 23.1 µM | 23.1 µM | COC(=O)C1=C(C)NC(C)=C(C(=O)OC)C1c1ccccc1[N+](=O)[O-] [Nifedipine] | 94.7% | 90.5% |
| > 45.8 µM | 10.3 µM | COC(=O)c1ccc2c(c1)NC(=O)/C2=C(\Nc1ccc(N(C)C(=O)CN2CCN(C)CC2)cc1)c1ccccc1 [Nintedanib] |  | 53.6% |
| 18.3 µM | 18.3 µM | COC(=O)C1=C(C)NC(C)=C(C(=O)OCC(C)C)C1c1ccccc1[N+](=O)[O-] (centres undefined) [Nisoldipine] | 55.8% | 77.8% |
| 13 µM | 18.3 µM | CC(=O)Oc1ccccc1C(=O)Nc1ncc([N+](=O)[O-])s1 [Nitazoxanide] | 104% | 122% |
| 29.1 µM | 29.1 µM | O=[N+]([O-])c1ccc(Oc2ccc(N=C=S)cc2)cc1 [Nitroscanate] | 82.7% | 85.5% |

| SMILES | IC50 cell viability ([2]; ICRF193 0 nM) | IC50 cell viability ([2]; ICRF193 200 nM) | efficacy ([1]; ICRF193 0 nM) | efficacy ([1]; ICRF193 200 nM) |
| --- | --- | --- | --- | --- |
| COc1ccc(C(C)(C)C)cc1CN[C@H]1C2CCN(CC2)[C@H]1C(c1ccccc1)c1ccccc1 [Maropitant] | 18.3 µM | 18.3 µM | 60.3% | 96% |
| c1ccc2c(c1)Sc1ccccc1N2CC1CN2CCC1CC2 (centres undefined) [Mequitazine] | 16.4 µM | 20.6 µM | 103% | 96.8% |
| CO[C@H]1[C@@H](O)C[C@H](O[C@H]2[C@@H](O)C[C@H](O[C@H]3[C@@H](O)C[C@H](O[C@H]4CC[C@@]5(C)[C@H](CC[C@@H]6[C@@H]5C[C@@H](O)[C@]5(C)[C@@H](C7=CC(=O)OC7)CC[C@]65O)C4)O[C@@H]3C)O[C@@H]2C)O[C@@H]1C [Methyldigoxin] | 0.0891 µM | 0.1 µM | 90.7% | 86.6% |
| O=C1c2c(O)ccc(O)c2C(=O)c2c(NCCNCCO)ccc(NCCNCCO)c21 [Mitoxantrone] | 2.31 µM | 2.06 µM | 90.7% | 96.4% |
| CC[C@@]1([C@@H]2O[C@@H]([C@H]3O[C@@](O)(CO)[C@H](C)C[C@@H]3C)C[C@@H]2C)CC[C@H]([C@]2(C)CC[C@]3(C[C@H](O)[C@@H](C)[C@@H]([C@@H](C)[C@@H](OC)[C@H](C)C(=O)O)O3)O2)O1 [Monensin sodium salt] | 3.18 µM | 3.18 µM | 81.1% | 83.4% |
| C[C@]12CC[C@H]3[C@@H](CCC4=CC(=O)CC[C@@H]43)[C@@H]1CC[C@@H]2OC(=O)CCc1ccco1 [Nandrolone furylpropionate] | 29.1 µM | 29.1 µM | 93.3% | 88% |
| CC[C@@H](C(=O)O)[C@@H]1O[C@@H]([C@@H](C)[C@H](O)[C@H](C)C(=O)[C@H](CC)[C@H]2O[C@]3(C=C[C@@H](O)[C@]4(CC[C@@](C)([C@H]5CC[C@](O)(CC)[C@H](C)O5)O4)O3)[C@H](C)C[C@@H]2C)[C@@H](C)C[C@@H]1C [Narasin] | 3.66 µM | 2.91 µM | 80.5% | 94.5% |
| COc1cccc2c1C(=O)c1c(O)c3c(c(O)c1C2=O)C[C@@](O)(C(=O)CO)C[C@@H]3O[C@H]1C[C@H](N2CCO[C@H](OC)C2)[C@H](O)[C@H](C)O1 [Nemorubicin] | 0.0259 µM | 0.0291 µM | 68.6% | 76.1% |
| Cc1ccc([N+](=O)[O-])[c]2c1[O][Hg]2 [Nitromersol] | 3.26 µM | 5.8 µM | 88.9% | 91.5% |
| CC(CCc1ccccc1)NC(C)C(O)c1ccc(O)cc1 (centres undefined) [Nylidrin] | > 45.8 µM | 16.4 µM |  | 40.7% |
